Assay results as given in PMC7942396, “Drug Repurposing Screen for Compounds Inhibiting the Cytopathic Effect of SARS-CoV-2” (Frontiers in Pharmacology, 2021).
Where a name gives a salt, the structure may show the parent alone. Read-outs that look alike come from different tables or passages of the source. Where a SMILES comes first, the peptide text is derived from it. [ ]: non-standard residue; d: D form. The star is where a group is joined. Nle = CCCC[C@H](N)C(=O)O; Cbz = O=C(OCc1ccccc1)*; CH2Cl = ClC*

Experiments:
[1] = system: SARS-CoV-2 (USA_WA1/2020); assay: microbe, parasite or virus in culture; type: cell-based; settings: for EC50: read-out: CPE EC50
[2] = SARS-CoV-2 CPE assay, Vero E6 cells, confirmed anti-SARS-CoV-2 compounds
[3] = SARS-CoV-2 CPE assay, Vero E6 cells, efficacy
[4] = […], DMSO 0%, no-virus control 100%, hit confirmation
[5] = Vero E6 cells without virus, 72 h
[6] = cytotoxicity counter-assay, Vero E6 cells without virus
[7] = read-out: Cytotox CC50, cytotoxicity counter-assay, Vero E6 cells without virus
[8] = SARS-CoV-2 CPE assay, Vero E6 cells

Molecule	EC50 [1, 2]	CPE % Efficacy [1, 3]	% Cytotox (Vero E6 cells; [6])	CC50 (Vero E6 cells; [7])	other results
CCCC[C@@H](C=O)NC(=O)[C@H](CC(C)C)NC(=O)[C@H](CC(C)C)NC(C)=O [Calpain Inhibitor I, ALLN, reference compound] (Ac-Leu-Leu-[Nle]-aldehyde)	0.0226 µM	72.0%	115.5%	1.13 µM	CPE % Efficacy [1, 4]: 111.1%; EC50 [1]: 2 µM; % Cytotox (Vero E6 cells; [5]): <30%
Cc1ccc(C(=O)Nc2cccc(C(F)(F)F)c2)cc1Nc1nc(-c2cccnc2)nc2c1cnn2C [NVP-BHG712]	2.51 µM	123.5%	–	–	% Cytotox (Vero E6 cells): 58.4%; CC50 (Vero E6 cells): 3.98 µM
CCCCNc1ncc2c(-c3ccc(F)cc3)nn(CC3CCC(N)CC3)c2n1 (centres unmarked) [UNC-569]	9.82 µM	46.0%	34.2%	4.92 µM	–
O=C(O)c1ccc(CCCc2ccc(OCCc3ccc(F)cc3)cc2)o1 [D-942]	0.14 µM	120.3%	53.7%	11.2 µM	–
GSK 9027	–	–	24.3%	–	CPE % Efficacy [1, 8]: 104.1%; EC50 [1, 8]: 12.6 µM
O=C1NC(=O)/C(=C/c2cccc(C(F)(F)F)c2)S1 [SMI-4a]	–	–	29.5%	–	CPE % Efficacy [1, 8]: 43.9%; EC50 [1, 8]: 12.6 µM
COc1ccccc1N1CCN(CC[C@@](C)(C(=O)C2CCCCC2)c2ccccc2)CC1 [(R)-(-)-LY 426965 dihydrochloride, reference compound]	–	–	–	–	CPE % Efficacy [1, 4]: 110.7%; EC50 [1]: 10 µM; % Cytotox (Vero E6 cells; [5]): <30%
C=C1Cc2c(Cl)cc3[nH]c4c5c3c2[C@@]2(O)[C@@H]1C[C@@H]2C(C)(C)O[C@H]5C1CC[C@@]2(O)[C@@]35O[C@@H]3[C@H]3OC(C)(C)[C@H]3O[C@H]5CC[C@]2(C)[C@@]41C (some centres unmarked) [NCGC00380694]	2.99 µM	50.6%	19.8%	4.74 µM	–
CC/C(=C(/CC)c1ccc(O)c(CN(CC)CC)c1)c1ccc(O)c(CN(CC)CC)c1 [NSC 33994, reference compound]	–	–	–	–	CPE % Efficacy [1, 4]: 107.6%; EC50 [1]: 8.9 µM; % Cytotox (Vero E6 cells; [5]): <30%
Cc1cccc(Nc2nc(-c3ccncc3)cs2)c1 [STF-62247, reference compound]	–	–	–	–	Shape of concentration-response in the CPE assay ([1]; Figure 3): bell-shaped concentration-responses due to cytotoxicity; CPE % Efficacy [1, 4]: 107.1%; EC50 [1]: 1.1 µM; CC50 (Vero E6 cells; read-out: Cytotox CC50, Vero E6 cells without virus, 72 h): 11.2 µM
CC(C)c1cccc2c(-c3ccccc3)cc(-c3ccc(-c4ccc(C(=O)O)cc4)[nH]3)nc12 [ER 50891]	11.2 µM	88.0%	16.9%	15.8 µM	–
O=C(c1ccc(Nc2nccc(-c3cc4ccccc4s3)n2)cc1)N1CCC(N2CCCC2)CC1 [IKK-16]	3.55 µM	110.2%	107.2%	10 µM	–
C[C@@H]1O[C@@H](O[C@H]2[C@H](OC(=O)[C@]34CCC(C)(C)C[C@H]3C3=CCC5[C@@]6(C)C[C@H](O)[C@H](O[C@@H]7O[C@H](CO[C@@H]8OC[C@H](O)[C@H](O)[C@H]8O)[C@@H](O)[C@H](O)[C@H]7O)C(C)(C)C6CC[C@@]5(C)[C@]3(C)C[C@H]4O)OC[C@@H](O)[C@@H]2O)[C@H](O)[C@H](O[C@@H]2OC[C@](O)(CO)[C@H]2O)[C@H]1O[C@@H]1OC[C@H](O)[C@H](O[C@@H]2OC[C@@H](O)[C@H](O)[C@H]2O)[C@H]1O (some centres unmarked) [NCGC00385321]	2.4 µM	105.7%	35.4%	2.4 µM	–
Cl.Cl.Clc1ccccc1CNCC1CCC(CNCc2ccccc2Cl)CC1 (centres unmarked) [AY 9944 dihydrochloride]	3.16 µM	41.0%	48.2%	12.6 µM	–
C[C@@H]1O[C@@H](O[C@H]2[C@H](OC(=O)[C@]34CCC(C)(C)C[C@H]3C3=CCC5[C@@]6(C)CC[C@H](O[C@@H]7O[C@H](CO[C@@H]8OC[C@H](O)[C@H](O)[C@H]8O)[C@@H](O)[C@H](O)[C@H]7O)C(C)(C)C6CC[C@@]5(C)[C@]3(C)C[C@H]4O)OC[C@@H](O)[C@@H]2O)[C@H](O)[C@H](O)[C@H]1O[C@@H]1OC[C@H](O)[C@H](O[C@@H]2OC[C@@H](O)[C@H](O)[C@H]2O)[C@H]1O (some centres unmarked) [NCGC00384864]	0.6 µM	46.4%	58.6%	1.91 µM	–
CCN(CC)Cc1cccc(/C=C/c2nc3ccc(F)cc3c(=O)n2-c2ccccc2Cl)n1.Cl [CP 465022 hydrochloride]	10 µM	77.3%	47.9%	12.6 µM	–
COc1ccc(C(C)(C)C)cc1CN[C@H]1C2CCN(CC2)[C@H]1C(c1ccccc1)c1ccccc1 [Maropitant]	3.55 µM	83.7%	108.2%	–	–
Cc1nc(C)c(CN2CCN(C(c3ccc(F)cc3)c3ccc(F)cc3)CC2)nc1C [CXC-195]	–	–	0.0%	–	CPE % Efficacy [1, 8]: 32.4%; EC50 [1, 8]: 12.6 µM
COc1cc2nc(-c3ccc(N4CCN(C)CC4)cc3)nc(NCCN3CCOCC3)c2cc1OC [CPG-52364]	11.2 µM	63.1%	41.6%	10 µM	–
COc1cccc2c1CCCC2CCCN1CCN(C2CCCCC2)CC1 (centres unmarked) [PB-28]	–	–	19.5%	12.6 µM	CPE % Efficacy [1, 8]: 88.6%; EC50 [1, 8]: 11.2 µM

Molecule	EC50 [1, 2]	CPE % Efficacy [1, 3]	% Cytotox (Vero E6 cells; [6])	CC50 (Vero E6 cells; [7])	other results
COc1cc2nc(N3CCCCC3)nc(NC3CCN(Cc4ccccc4)CC3)c2cc1OC [NCGC00185849]	3.98 µM	66.6%	110.3%	10 µM	–
CC(CN(C)C)CN1c2ccccc2Sc2ccc(C(F)(F)F)cc21 (centres unmarked) [Trifluomeprazine 2-butenedioate, reference compound]	–	–	–	–	CPE % Efficacy [1, 4]: 90.2%; EC50 [1]: 10 µM; % Cytotox (Vero E6 cells; [5]): <30%
COc1cc(-n2cnc3cc(-c4ccc(Cl)cc4)sc3c2=O)ccc1OCCN1CCCC1 [GW 803430, reference compound]	–	–	–	–	CPE % Efficacy [1, 4]: 93.3%; EC50 [1]: 3.5 µM; % Cytotox (Vero E6 cells; [5]): <30%
O=C(CCn1cnc2onc(-c3ccc(F)cc3)c2c1=O)Nc1cccc(C(F)(F)F)c1 [NCGC00126519]	11.2 µM	64.8%	65.0%	10 µM	–
Cc1ccc(-c2c(C(=O)CCl)n(CCCO)c3ncnc(N)c23)cc1 [CMK]	–	–	15.2%	–	CPE % Efficacy [1, 8]: 38.9%; EC50 [1, 8]: 12.6 µM
CCc1ccccc1OC[C@@H](O)CN[C@H]1CCCc2ccccc21.Cl [SR 59230A hydrochloride]	–	–	13.9%	17.8 µM	CPE % Efficacy [1, 8]: 108.4%; EC50 [1, 8]: 11.2 µM
CN(C)CC(=O)N1CCC(c2ccc(NC(=O)c3nc(C#N)c[nH]3)c(C3=CCCCC3)c2)CC1 [JNJ-28312141]	–	–	60.9%	12.6 µM	CPE % Efficacy [1, 8]: 37.8%; EC50 [1, 8]: 14.1 µM
CC(C)C[C@H](NC(=O)CNC(=O)OCc1ccccc1)C(=O)N[C@@H](Cc1ccccc1)C(=O)CCl [Z-Gly-Leu-Phe-chloromethyl ketone, reference compound] (Cbz-Gly-Leu-Phe-CH2Cl)	–	–	–	–	CPE % Efficacy [1, 4]: 87.2%; EC50 [1]: 1.3 µM; % Cytotox (Vero E6 cells; [5]): <30%
CC(C)CCC[C@@H](C)[C@H]1CC[C@H]2[C@@H]3CC=C4C[C@@H](OC(=O)NCCN(C)C)CC[C@]4(C)[C@H]3CC[C@]12C.Cl	11.2 µM	40.5%	37.0%	10 µM	–
C/C(=N\NC(=S)N1CCC1)c1ccccn1 [NSC-319726]	1.12 µM	58.3%	52.8%	0.35 µM	–
CCCCCCCCCCCCCCCc1cccc(O)c1C(=O)O [Anacardic Acid]	3.98 µM	89.6%	72.9%	–	–
CNC(=O)c1ccc2c(C(=Nc3cccc(CN(C)C)c3)c3ccccc3)c(O)[nH]c2c1 [NCGC00346543]	–	–	22.6%	–	CPE % Efficacy [1, 8]: 94.9%; EC50 [1, 8]: 12.6 µM
COc1cc2c(Nc3ccc(NC(=O)c4ccccc4)cc3)ncnc2cc1OCCCN1CCOCC1 [ZM-447439]	–	–	38.3%	12.6 µM	CPE % Efficacy [1, 8]: 49.6%; EC50 [1, 8]: 14.1 µM
CC1(C)CN2C(CSC(=NC3CCCCC3)NC3CCCCC3)=CSC2=N1.Cl.Cl [IT1t dihydrochloride, reference compound]	–	–	–	–	CPE % Efficacy [1, 4]: 96.3%; EC50 [1]: 3.5 µM; % Cytotox (Vero E6 cells; [5]): <30%
CCC(C)C(=O)OC12C(OC(C)=O)C(C)C3(O)C(C=C(CO)CC4(O)C(=O)C(C)=CC43)C1C2(C)C (centres unmarked) [NCGC00380715]	0.98 µM	45.0%	0.0%	–	–
COc1cc2nc(N3CCCCC3)nc(NC3CCN(C)CC3)c2cc1OC [NCGC00185859]	3.55 µM	94.8%	69.3%	10 µM	–
C/C=C(\C)C(=O)O[C@H]1CC2C(=C1C)[C@H]1OC(=O)[C@](C)(O)[C@]1(O)[C@H](OC(=O)CCC)C[C@@]2(C)OC(C)=O (some centres unmarked) [NCGC00169033]	2.77 µM	63.3%	48.4%	4.39 µM	–
CCc1cc(-c2n[nH]c(C)c2-c2ccc3c(c2)OCCO3)c(O)cc1O [CCT-018159]	–	–	34.2%	–	CPE % Efficacy [1, 8]: 74.6%; EC50 [1, 8]: 14.1 µM
CCCOC(C(=O)OC1CCN(C)CC1)(c1ccccc1)c1ccccc1.Cl [Propiverine hydrochloride]	11.2 µM	44.6%	0.0%	–	–
CC(=O)O[C@@H]1C[C@H]2C(C)(C)C(=O)C=C[C@]2(C)[C@H]2CC[C@]3(C)C(=CC(=O)O[C@H]3c3ccoc3)[C@@]21C [DEOXYGEDUNIN]	11.2 µM	107.7%	0.0%	–	–
